In patent publication US6784137B2, “6-aryl-4-aminopicolinates and their use as herbicides” (Dow AgroSciences LLC, priority 2001, dated 2004):

Columns and labels:
[1] = tested on: Crabgrass(large) (Digitaria sanguinalis); test: Preemergence herbicidal activity, soil spray; type: in vivo; conditions: Table 5, visual score after 3 weeks
Description: (§1) Seeds of the desired test plant species were planted in a soil matrix prepared by mixing a loam soil (43 percent silt, 19 percent clay, and 38 percent sand, with a pH of about 8.1 and an organic matter content of about 1.5 percent) and sand in a 70 to 30 ratio. The soil matrix was contained in plastic pots with a surface area of 113 square centimeters. When required to ensure good germination and healthy plants, a fungicide treatment and/or other chemical or physical treatment was applied. A weighed amount, determined by the highest rate to be tested, of each test compound was placed in a 20 mL glass vial and was dissolved in 4 mL of a 97:3 v/v (volume/volume) mixture of acetone and dimethyl sulfoxide to obtain concentrated stock solutions. […] The stock solutions obtained were diluted with a 99.9:0.1 mixture of water and Tween® 155 surfactant to obtain application solutions of known concentration. The solutions containing the highest concentration to be tested were prepared by diluting 2 mL aliquots of the stock solution with 15 mL of the mixture and lower concentrations were prepared by serial dilution of the stock solution. A 2.5 mL aliquot of each solution of known concentration was sprayed evenly onto the soil surface (113 sq. cm) of each seeded pot using a Cornwall 5.0 mL glass syringe fitted with a TeeJet TN-3 hollow cone nozzle to obtain thorough coverage of the soil in each pot. Control pots were sprayed in the same manner with the aqueous mixture. The treated pots and control pots were placed in a greenhouse maintained with an approximate 15 hr photoperiod and temperatures of about 23-29° C. during the day and 22-28° C. during the night. Nutrients and water were added on a regular basis and supplemental lighting was provided with overhead metal halide 1000-Watt lamps as necessary. The water was added by top-irrigation.

[2] = tested on: Giant Foxtail (Setaria faberi); test: Preemergence herbicidal activity, soil spray; type: in vivo; conditions: Table 5, visual score after 3 weeks
Description: as §1

[3] = tested on: Lambsquarter (Chenopodium album); test: Preemergence herbicidal activity, soil spray; type: in vivo; conditions: Table 5, visual score after 3 weeks
Description: as §1

[4] = tested on: Pigweed (redroot) (Amaranthus retroflexus); test: Preemergence herbicidal activity, soil spray; type: in vivo; conditions: Table 5, visual score after 3 weeks
Description: as §1

[5] = tested on: Barnyardgrass (Echinochloa crus-galli); test: Postemergence herbicidal activity, greenhouse spray; type: in vivo; conditions: Table 1, visual score after 2 weeks; for pest or weed control at 500 ppm: rate 500 ppm
Procedure: (§2) When required to ensure good germination and healthy plants, a fungicide treatment and/or other chemical or physical treatment was applied. The plants were grown for 7-21 days in a greenhouse with an approximate 15 hr photoperiod which was maintained at about 23-29° C. during the day and 22-28° C. during the night. Nutrients and water were added on a regular basis and supplemental lighting was provided with overhead metal halide 1000-Watt lamps as necessary. The plants were employed for testing when they reached the first or second true leaf stage. A weighed amount, determined by the highest rate to be tested, of each test compound was placed in a 20 mL glass vial and was dissolved in 4 mL of a 97:3 v/v (volume/volume) mixture of acetone and dimethyl sulfoxide (DMSO) to obtain concentrated stock solutions. […] The concentrated stock solutions obtained were diluted with an aqueous mixture containing acetone, water, isopropyl alcohol, DMSO, At plus 411 F crop oil concentrate, and Triton X-155 surfactant in a 48.5:39:10:1.5:1.0:0.02 v/v ratio to obtain spray solutions of known concentration. The solutions containing the highest concentration to be tested were prepared by diluting 2 mL aliquots of the stock solution with 13 mL of the mixture and lower concentrations were prepared by serial dilution of the stock solution. Approximately 1.5 mL aliquots of each solution of known concentration were sprayed evenly onto each of the test plant pots using a DeVilbiss atomizer driven by compressed air pressure of 2 to 4 psi (140 to 280 kiloPascals) to obtain thorough coverage of each plant. Control plants were sprayed in the same manner with the aqueous mixture. […] The treated plants and control plants were placed in a greenhouse as described above and watered by sub-irrigation to prevent wash-off of the test compounds.

[6] = tested on: Cocklebur (Xanthium strumarium); test: as above; type: in vivo; conditions: Table 1, visual score after 2 weeks; for pest or weed control at 500 ppm: rate 500 ppm, 0 no injury, 100 complete kill
Procedure: as §2

[7] = tested on: Lambsquarter (Chenopodium album); test: as above; type: in vivo; conditions: Table 1, visual score after 2 weeks; for pest or weed control at 500 ppm: rate 500 ppm
Procedure: as §2

[8] = tested on: Yellow nutsedge (Cyperus esculentus); test: as above; type: in vivo; conditions: Table 1, visual score after 2 weeks
Procedure: as §2

[9] = Digitaria sanguinalis, pre-emergence, 504 h, rate 560 ppm, read-out: Pre-emergent % control DIGSA
[10] = Setaria faberi, pre-emergence, 504 h, rate 560 ppm, read-out: Pre-emergent % control SETFA
[11] = Chenopodium album, pre-emergence, 504 h, rate 560 ppm, 100 complete kill or no germination, read-out: Pre-emergent % control CHEAL
[12] = Amaranthus retroflexus, pre-emergence, 504 h, rate 560 ppm, read-out: Pre-emergent % control AMARE
[13] = Echinochloa crus-galli, post-emergence, 336 h, read-out: Post-emergent % control ECHCG
[14] = Xanthium strumarium, post-emergence, 336 h, read-out: Post-emergent % control XANST
[15] = Chenopodium album, post-emergence, 336 h, read-out: Post-emergent % control CHEAL
[16] = rate 560 ppm, 100 complete kill or no germination

CCc1ccc(-c2cc(N)c(Cl)c(C(=O)OC)n2)cc1 [Compound 30, Methyl 4-amino-3-chloro-6-(4-ethylphenyl)pyridine-2-carboxylate] showed a pest or weed control at 560 ppm [1, 9] of 100%, a pest or weed control at 560 ppm [2, 10] of 70% and a pest or weed control at 560 ppm [3, 11] of 90%. It also gave a pest or weed control at 560 ppm [4, 12] of 100% and a melting point of 119 °C.
In the case of COC(=O)c1nc(-c2ccc(Cl)cc2F)cc(N)c1Cl [Compound 59, Methyl 4-amino-3-chloro-6-(4-chloro-2-fluorophenyl)pyridine-2-carboxylate], the pest or weed control at 500 ppm [5, 13] is reported as 80%, the pest or weed control at 500 ppm [6, 14] is reported as 100% and the pest or weed control at 500 ppm [7, 15] is reported as 100%. The pest or weed control at 280 ppm ([1]; Digitaria sanguinalis, pre-emergence, 504 h, rate 280 ppm, read-out: Pre-emergent % control DIGSA) was 100%, the pest or weed control at 280 ppm ([2]; Setaria faberi, pre-emergence, 504 h, rate 280 ppm, read-out: Pre-emergent % control SETFA) was 100% and the pest or weed control at 280 ppm ([3]; Chenopodium album, pre-emergence, 504 h, rate 280 ppm, read-out: Pre-emergent % control CHEAL) was 100%. It also gave a pest or weed control at 280 ppm ([4]; Amaranthus retroflexus, pre-emergence, 504 h, rate 280 ppm, read-out: Pre-emergent % control AMARE) of 100% and a melting point of 107 to 109 °C.
With COC(=O)c1nc(-c2ccc(C)cc2)cc(-n2cccc2)c1Cl [Compound 89, Methyl 4-N-pyrolyl-3-chloro-6-(4-methylphenyl)pyridine-2-carboxylate] the “Post-emergent % control ECHCG” value ([5]; rate 250 ppm) was 90%, the “Post-emergent % control XANST” value ([6]; rate 250 ppm) was 100% and the “Post-emergent % control CHEAL” value ([7]; rate 250 ppm) was 100%. The “Post-emergent % control CYPES” value ([8]; rate 250 ppm) was 50%, the “Pre-emergent % control DIGSA” value ([1]; rate 560 ppm) was 90% and the “Pre-emergent % control SETFA” value ([2]; rate 560 ppm) was 85%. For the same molecule, the “Pre-emergent % control CHEAL” value [3, 16] was 100% and the “Pre-emergent % control AMARE” value ([4]; rate 560 ppm) was 100%.
In the case of Nc1c(F)c(-c2ccc(C(F)(F)F)cc2)nc(C(=O)O)c1Cl [Compound 172, 4-Amino-3-chloro-5-fluoro-6-(4-trifluorophenyl)pyridine-2-carboxylic acid], the “Post-emergent % control ECHCG” value ([5]; rate 125 ppm) is reported as 90%, the “Post-emergent % control XANST” value ([6]; rate 125 ppm) is reported as 100% and the “Post-emergent % control CHEAL” value ([7]; rate 125 ppm) is reported as 90%. For the same molecule, the “Post-emergent % control CYPES” value ([8]; rate 125 ppm) was 90%, the “Pre-emergent % control DIGSA” value ([1]; rate 140 ppm) was 95% and the “Pre-emergent % control SETFA” value ([2]; rate 140 ppm) was 90%. The “Pre-emergent % control CHEAL” value ([3]; rate 140 ppm) was 90% and the “Pre-emergent % control AMARE” value ([4]; rate 140 ppm) was 95%.
In the case of Nc1c(F)c(-c2ccc(Cl)cc2)nc(C(=O)O)c1Cl [Compound 173, 4-Amino-3-chloro-5-fluoro-6-(4-chlorophenyl)pyridine-2-carboxylic acid], the pest or weed control at 500 ppm [5, 13] is reported as 100%, the pest or weed control at 500 ppm [6, 14] is reported as 100% and the pest or weed control at 500 ppm [7, 15] is reported as 100%. It also gave a pest or weed control at 500 ppm ([8]; Cyperus, post-emergence, 336 h, rate 500 ppm, read-out: Post-emergent % control CYPES) of 100%, a pest or weed control at 560 ppm [1, 9] of 100% and a pest or weed control at 560 ppm [2, 10] of 100%. It also gave a pest or weed control at 560 ppm [3, 11] of 100% and a pest or weed control at 560 ppm [4, 12] of 100%.
For Nc1cc(-c2ccc(Cl)c(C(F)(F)F)c2)nc(C(=O)O)c1Cl [Compound 179, 4-Amino-3-chloro-6-(4-chloro-3-(trifluoromethyl)phenyl)pyridine-2-carboxylic acid], the pest or weed control at 560 ppm [1, 9] was 98%, the pest or weed control at 560 ppm [2, 10] was 98% and the pest or weed control at 560 ppm [3, 11] was 100%. It also gave a pest or weed control at 560 ppm [4, 12] of 100% and a melting point of 176 °C.
With Cc1ccc(-c2cc(-n3cccc3)c(Cl)c(C(=O)O)n2)cc1 [Compound 180, 3-chloro-6-(4-methylphenyl)-4-(N-pyrolyl)pyridine-2-carboxylic acid] the “Post-emergent % control ECHCG” value ([5]; rate 250 ppm) was 70%, the “Post-emergent % control XANST” value ([6]; rate 250 ppm) was 80% and the “Post-emergent % control CHEAL” value ([7]; rate 250 ppm) was 100%. For the same molecule, the “Post-emergent % control CYPES” value ([8]; rate 250 ppm) was 30%, the “Pre-emergent % control DIGSA” value ([1]; rate 560 ppm) was 95% and the “Pre-emergent % control SETFA” value ([2]; rate 560 ppm) was 100%. The “Pre-emergent % control CHEAL” value [3, 16] was 100% and the “Pre-emergent % control AMARE” value ([4]; rate 560 ppm) was 100%.
Molecule Nc1c(F)c(C(=O)O)nc(-c2ccc3c(c2)OCO3)c1F [Compound 207, 4-Amino-3,5-difluoro-6-(3,4-methylenedioxyphenyl)pyridine-2-carboxylic acid] has a pest or weed control at 125 ppm ([5]; Echinochloa crus-galli, post-emergence, 336 h, rate 125 ppm, read-out: Post-emergent % control ECHCG) of 70%, a pest or weed control at 125 ppm ([6]; Xanthium strumarium, post-emergence, 336 h, rate 125 ppm, read-out: Post-emergent % control XANST) of 90% and a pest or weed control at 125 ppm ([7]; Chenopodium album, post-emergence, 336 h, rate 125 ppm, read-out: Post-emergent % control CHEAL) of 70%. For the same molecule, the pest or weed control at 125 ppm ([8]; Cyperus, post-emergence, 336 h, rate 125 ppm, read-out: Post-emergent % control CYPES) was 40%, the pest or weed control at 140 ppm ([1]; Digitaria sanguinalis, pre-emergence, 504 h, rate 140 ppm, read-out: Pre-emergent % control DIGSA) was 95% and the pest or weed control at 140 ppm ([2]; Setaria faberi, pre-emergence, 504 h, rate 140 ppm, read-out: Pre-emergent % control SETFA) was 50%. The pest or weed control at 140 ppm ([4]; Amaranthus retroflexus, pre-emergence, 504 h, rate 140 ppm, read-out: Pre-emergent % control AMARE) was 100% and the melting point was 174 to 175 °C.
